Where two headings read alike, the source gives them in different places.
Columns and labels:
Ross 708 male broilers = assay: Clinical study of in-feed AGPs in broilers: weight gain and feed conversion; assay type: in vivo, chickens (Gallus gallus); conditions: in-feed: 50 g/ton BMD, 20 g/ton avilamycin, 16.5 g/ton virginiamycin, 70 g/ton narasin; 35 days
Text: 500 healthy Ross 708 male broilers sourced from a commercial hatchery were used in the experiment. […] Birds were individually tagged with a unique identifier and were randomly assigned to one of 25 floor pens (20 animals per pen). Groups of 5 pens were assigned to each of 5 different treatments. The 5 treatments included: 1) control birds fed least-cost diets as follows: A starter diet was fed from days 0 to 14 of the study, followed by a grower diet (14-28d) and a finisher diet (28-35d). 2) Birds fed the above diets supplemented with 50 g/ton BMD. 3) Supplemented with 20 g/ton avilamycin. 4) Supplemented with 16.5 g/ton Virginiamycin. And 5) supplemented with 70 g/ton narasin. Birds were raised for 35 days in a barn on top of used litter.
Individual body weights were collected on days 0, 7, 21 and 35. Pen weights were collected on days 14 and 28. Feed weigh backs for each pen were done on days 7, 14, 21, 28 and 35 of the study. Average bird weights and feed intake per pen were used to calculate weekly values of average daily gain and feed conversion ratios. Weekly values were compared between treatments using the Mann Whitney U test. On days 7, 21 and 35 three birds per pen were randomly selected and euthanized for the collection of cecal contents and blood. Blood was collected via wing vein venipuncture, except for birds that were too small, in which cases direct heart puncture was used. In both cases, blood was collected into vacutainer tubes and centrifuged to obtain serum. Cecal samples were collected by aseptically squeezing the cecum content into a sterile tube. Cecal samples were placed on dry ice immediately after collection. All samples were stored at −80° C. until processing.

[1] = assay type: in vivo, chickens (Gallus gallus)
Description: 15 cecal samples and 10 serum samples from day 35 birds were sent to metabolon (Morrisville, NC) for untargeted metabolomics analysis. These numbers of samples were sent for both the control and narasin treatments. Serum samples were selected sequentially, that is, without knowledge of bird performance or results from other analyses.
Samples were prepared using the automated MicroLab STAR® system from Hamilton Company. Samples were extracted with methanol under vigorous shaking for 2 min (Glen Mills GenoGrinder 2000) to precipitate protein and dissociate small molecules bound to protein or trapped in the precipitated protein matrix, followed by centrifugation to recover chemically diverse metabolites. The resulting extract was divided into four fractions: two for analysis by two separate reverse phase (RP)/Ultrahigh Performance Liquid Chromatography-Tandem Mass Spectroscopy (UPLC-MS/MS) methods using positive ion mode electrospray ionization (ESI), one for analysis by RP/UPLC-MS/MS using negative ion mode ESI, and one for analysis by HILIC/UPLC-MS/MS using negative ion mode ESI. Samples were placed briefly on a TurboVap® (Zymark) to remove the organic solvent. The sample extracts were stored overnight under nitrogen before preparation for analysis.
The sample extract was dried and reconstituted in solvents compatible to each of the four methods. One aliquot was analyzed using acidic positive ion conditions, chromatographically optimized for more hydrophilic compounds. In this method, the extract is gradient-eluted from a C18 column (Waters UPLC BEH C18-2.1×100 mm, 1.7 μm) using water and methanol, containing 0.05% perfluoropentanoic acid (PFPA) and 0.1% formic acid (FA). A second aliquot was also analyzed using acidic positive ion conditions but was chromatographically optimized for more hydrophobic compounds. In this method, the extract is gradient eluted from the C18 column using methanol, acetonitrile, water, 0.05% PFPA and 0.01% FA, and is operated at an overall higher organic content. A third aliquot was analyzed using basic negative ion optimized conditions using a separate dedicated C18 column. The basic extracts were gradient-eluted from the column using methanol and water, and with 6.5 mM Ammonium Bicarbonate at pH 8. The fourth aliquot was analyzed via negative ionization following elution from a HILIC column (Waters UPLC BEH Amide 2.1×150 mm, 1.7 μm) using a gradient consisting of water and acetonitrile with 10 mM Ammonium Formate, pH 10.8. The MS analysis alternates between MS and data-dependent MS^n scans using dynamic exclusion. The scan range varies slightly between methods, but covers approximately 70-1000 m/z.
UPLC-MS/MS was done using a Waters ACQUITY ultra-performance liquid chromatography (UPLC) and a Thermo Scientific Q-Exactive high resolution/accurate mass spectrometer interfaced with a heated electrospray ionization (HESI-II) source and Orbitrap mass analyzer operated at 35,000 mass resolution.
Raw data was extracted, peak-identified, and QC processed using Metabolon's hardware and software. Compounds were identified by comparison to library entries of purified standards. The library, based on authenticated standards, contains the retention time/index (RI), mass to charge ratio (m/z), and chromatographic data (including MS/MS spectral data) on all molecules present in the library. Biochemical identifications were based on three criteria: retention index within a narrow RI window of the proposed identification, accurate mass match to the library+/−10 ppm, and the MS/MS forward and reverse scores. MS/MS scores are based on a comparison of the ions present in the experimental spectrum to ions present in the library entry spectrum.
Peaks were quantified as area-under-the-curve (AUC) detector ion counts. For each identified metabolite, AUC values were rescaled by dividing by the median AUC value across all samples. […]

[2] = cecum, day 35, corrected p-value<0.05

## CC[C@@H](C(=O)O)[C@@H]1O[C@@H]([C@@H](C)[C@H](O)[C@H](C)C(=O)[C@H](CC)[C@H]2O[C@]3(C=C[C@@H](O)[C@]4(CC[C@@](C)([C@H]5CC[C@](O)(CC)[C@H](C)O5)O4)O3)[C@H](C)C[C@@H]2C)[C@@H](C)C[C@@H]1C [narasin]
Ross 708 male broilers
  impact on bird performance: highest impact on performance
[1]; cecum and serum, day 35
  spermidine concentration: lower concentration
[1]; cecum, day 35
  amino acid concentrations compared to controls: all 20 amino acids were found at lower concentrations
  riboflavin concentration: higher concentration
[1]; [2]
  number of metabolites at higher abundance compared to controls: 49
  number of metabolites at lower abundance compared to controls: 78
[1]; serum, day 35
  number of metabolites at higher abundance compared to controls: 4
  number of metabolites at lower abundance compared to controls: 93
  urea level compared to controls: lower levels

Reference: patent US20250163522A1, “METHODS FOR PRESERVING HEALTHY INTESTINAL MICROBIOME DURING GROWTH PROMOTER ADMINSTRATION” (BIOMEDIT, LLC, priority 2022, published 2025)
